Reference: patent US6475985B1, “Nucleosides with antiviral and anticancer activity” (priority 1998, dated 2002)
Read-outs that look alike come from different tables or passages of the source.

What was measured:
[1] = system: MCF-7 breast cancer cells; test: Test G: activity against MCF-7 breast cancer cells; format: cell-based
Experimental: (§1) The activity of representative compounds of formula VII against MCF-7 breast cancer cells and CEM T-cell leukemia cells were determined using a procedure similar to that described by C. R. Wagner, et al. Cancer Research, 1997, 57, 2341-2345.

[2] = system: CEM T-cell leukemia cells; test: Test G: activity against CEM T-cell leukemia cells; format: cell-based
Experimental: as §1

[3] = system: HIV-1; test: Test A: antiviral activity against HIV-1 isolates and laboratory strain in peripheral blood lymphocytes; format: cell-based; conditions: Human immunodeficiency virus 1, Lymphocyte, read-out: Mean IC50 in PBLs
Experimental: (§2) The antiviral activity of representative compounds of the invention was determined with matched HIV-1 isolates and a laboratory HIV-1 strain as previously described (D. L. Mayers et al., Proc. Natl. Acad. Sci., USA 1995, 92, 215-219; and C. R. Wagner et al., Bioorganic and Medicinal Chemistry Letters, 1995, 5, 1819-1824).

[4] = system: PBMCs; conditions: human
Experimental: as §2

[5] = Test F: stability in human plasma; format: in vitro ADME; conditions: 37 C
[6] = in vitro; conditions: cell media

For COC(=O)[C@H](Cc1c[nH]c2ccccc12)NP(=O)(O)OC[C@H]1O[C@@H](n2cc(F)c(=O)[nH]c2=O)C[C@@H]1O [Compound 37, 5-fluoro-2′deoxy-5′-uridyl N-((L)-1-carbomethoxy-2-indol-3-ylethyl)phosphoramidate], the CC50 [1] was 25 nM, the CC50 [2] was 320 nM and the “Half-life Cell Media 37 C” value was greater than 48 h.

Nc1nccc2c1ncn2[C@@H]1O[C@H](CO)[C@@H](O)[C@H]1O [DZA, 3-deaza adenosine, reference compound] showed an IC50 ([3]; HIV-1 isolate A012 post-AZT) of 165 nM, an IC50 ([3]; HIV-1 isolate A012 pre-AZT) of 144 nM and a CC80 [4] of 1000 nM.

For O=c1[nH]c(=O)n([C@H]2C[C@H](O)[C@@H](CO)O2)cc1F [FUdR, 5-fluorodeoxyuridine, reference compound], the half-life [5] was 0.0833 to 0.167 h, the CC50 ([1]; Homo sapiens, MCF7) was 11000 nM and the CC50 ([2]; T-cell) was 1 nM. It also gave a half-life [6] greater than 48 h.
